Remaining binding data for four compounds are collected here from paper PMC10004634 (PLOS ONE, 2023).

Where two headings read alike, the source gives them in different places.

Holding throughout (assay): biochemical
Holding throughout (parameters): KINOMEscan scanMAX competition binding, DNA-tagged kinases, qPCR read-out, percent control at 300 nM
(In qPCR the cycle at which signal appears reflects the starting amount.)

Assay [1] concerns the target T1, TAK1 (Homo sapiens, UniProt O43318).
T1 construct: gene MAP3K7

Assay [2] addresses T2, GCN2(Kin.Dom.2,S808G) (Homo sapiens, UniProt Q9P2K8, S808G).
T2 construct: gene EIF2AK4; Kin.Dom.2

The target of assay [3] is NEK1 (Homo sapiens, UniProt Q96PY6).
The target in assay [4] is LIMK2 (Homo sapiens, UniProt P53671).
The target of assay [5] is T3, MST4 (Homo sapiens, UniProt Q9P289).
T3 construct: gene STK26

In assay [6] the target is CAMKK1 (Homo sapiens, UniProt Q8N5S9).
In assay [7] the target is T4, PCTK3 (Homo sapiens, UniProt Q07002).
T4 construct: gene CDK18

Assay [8] concerns the target T5, ERK8 (Homo sapiens, UniProt Q8TD08).
T5 construct: gene MAPK15

Assay [9] addresses PRKCE (Homo sapiens, UniProt Q02156).
Assay [10] deals with CDKL1 (Homo sapiens, UniProt Q00532).
Assay [11] concerns the target NEK11 (Homo sapiens, UniProt Q8NG66).
The target of assay [12] is T6, MST2 (Homo sapiens, UniProt Q13188).
T6 construct: gene STK3

Assay [13] addresses MYLK (Homo sapiens, UniProt Q15746).
For assay [14], the target named is T7, PCTK2 (Homo sapiens, UniProt Q00537).
T7 construct: gene CDK17

For assay [15], the target named is MET (Homo sapiens, UniProt P08581).
In assay [16] the target is ERBB3 (Homo sapiens, UniProt P21860).
For assay [17], the target named is T8, PFTK1 (Homo sapiens, UniProt O94921).
T8 construct: gene CDK14

Assay [18] addresses IRAK4 (Homo sapiens, UniProt Q9NWZ3).
Assay [19] has as its target SRC (Homo sapiens, UniProt P12931).
The target in assay [20] is LYN (Homo sapiens, UniProt P07948).
The target of assay [21] is TNNI3K (Homo sapiens, UniProt Q59H18).
The target of assay [22] is STK36 (Homo sapiens, UniProt Q9NRP7).
In assay [23] the target is MYO3A (Homo sapiens, UniProt Q8NEV4).
[24] abbreviates: read-out: Percent control / Zanubrutinib.
The mark [25] stands for this setting: read-out: Percent control / Tirabrutinib.
Where [26] appears, read: read-out: Percent control / Ibrutinib.
[27] abbreviates: read-out: Percent control / Acalabrutinib.

Sequence of NEK11 (Q8NG66 whole entry): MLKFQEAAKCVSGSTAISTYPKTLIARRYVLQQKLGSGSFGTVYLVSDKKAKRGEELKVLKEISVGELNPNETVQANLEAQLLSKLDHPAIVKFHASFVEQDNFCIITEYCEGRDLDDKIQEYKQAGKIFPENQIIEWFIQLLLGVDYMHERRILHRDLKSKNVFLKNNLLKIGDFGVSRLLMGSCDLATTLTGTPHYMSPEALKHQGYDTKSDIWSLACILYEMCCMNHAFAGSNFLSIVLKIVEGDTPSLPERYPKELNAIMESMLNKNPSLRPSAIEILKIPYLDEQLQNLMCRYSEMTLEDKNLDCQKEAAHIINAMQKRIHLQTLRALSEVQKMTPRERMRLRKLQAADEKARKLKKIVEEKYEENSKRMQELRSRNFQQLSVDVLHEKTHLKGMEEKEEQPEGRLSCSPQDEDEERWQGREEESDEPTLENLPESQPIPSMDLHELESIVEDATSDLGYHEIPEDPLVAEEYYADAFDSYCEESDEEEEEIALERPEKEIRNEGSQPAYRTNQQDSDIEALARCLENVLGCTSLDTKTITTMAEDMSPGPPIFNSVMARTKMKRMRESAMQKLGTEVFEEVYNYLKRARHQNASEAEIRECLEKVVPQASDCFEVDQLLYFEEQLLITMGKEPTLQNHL
T8 sequence (O94921 whole entry): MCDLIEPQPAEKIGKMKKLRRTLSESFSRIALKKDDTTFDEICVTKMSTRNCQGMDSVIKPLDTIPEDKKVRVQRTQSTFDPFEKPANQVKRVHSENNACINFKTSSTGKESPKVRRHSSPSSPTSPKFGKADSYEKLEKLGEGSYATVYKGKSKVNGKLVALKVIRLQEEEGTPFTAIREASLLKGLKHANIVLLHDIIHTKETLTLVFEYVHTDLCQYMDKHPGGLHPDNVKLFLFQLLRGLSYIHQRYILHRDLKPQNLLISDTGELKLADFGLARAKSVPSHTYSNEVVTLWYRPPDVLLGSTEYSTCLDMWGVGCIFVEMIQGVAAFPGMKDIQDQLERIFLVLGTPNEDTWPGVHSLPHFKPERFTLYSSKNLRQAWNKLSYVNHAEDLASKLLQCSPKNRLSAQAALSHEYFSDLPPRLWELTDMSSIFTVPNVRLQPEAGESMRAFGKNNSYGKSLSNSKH
Sequence of ERBB3 (P21860 whole entry): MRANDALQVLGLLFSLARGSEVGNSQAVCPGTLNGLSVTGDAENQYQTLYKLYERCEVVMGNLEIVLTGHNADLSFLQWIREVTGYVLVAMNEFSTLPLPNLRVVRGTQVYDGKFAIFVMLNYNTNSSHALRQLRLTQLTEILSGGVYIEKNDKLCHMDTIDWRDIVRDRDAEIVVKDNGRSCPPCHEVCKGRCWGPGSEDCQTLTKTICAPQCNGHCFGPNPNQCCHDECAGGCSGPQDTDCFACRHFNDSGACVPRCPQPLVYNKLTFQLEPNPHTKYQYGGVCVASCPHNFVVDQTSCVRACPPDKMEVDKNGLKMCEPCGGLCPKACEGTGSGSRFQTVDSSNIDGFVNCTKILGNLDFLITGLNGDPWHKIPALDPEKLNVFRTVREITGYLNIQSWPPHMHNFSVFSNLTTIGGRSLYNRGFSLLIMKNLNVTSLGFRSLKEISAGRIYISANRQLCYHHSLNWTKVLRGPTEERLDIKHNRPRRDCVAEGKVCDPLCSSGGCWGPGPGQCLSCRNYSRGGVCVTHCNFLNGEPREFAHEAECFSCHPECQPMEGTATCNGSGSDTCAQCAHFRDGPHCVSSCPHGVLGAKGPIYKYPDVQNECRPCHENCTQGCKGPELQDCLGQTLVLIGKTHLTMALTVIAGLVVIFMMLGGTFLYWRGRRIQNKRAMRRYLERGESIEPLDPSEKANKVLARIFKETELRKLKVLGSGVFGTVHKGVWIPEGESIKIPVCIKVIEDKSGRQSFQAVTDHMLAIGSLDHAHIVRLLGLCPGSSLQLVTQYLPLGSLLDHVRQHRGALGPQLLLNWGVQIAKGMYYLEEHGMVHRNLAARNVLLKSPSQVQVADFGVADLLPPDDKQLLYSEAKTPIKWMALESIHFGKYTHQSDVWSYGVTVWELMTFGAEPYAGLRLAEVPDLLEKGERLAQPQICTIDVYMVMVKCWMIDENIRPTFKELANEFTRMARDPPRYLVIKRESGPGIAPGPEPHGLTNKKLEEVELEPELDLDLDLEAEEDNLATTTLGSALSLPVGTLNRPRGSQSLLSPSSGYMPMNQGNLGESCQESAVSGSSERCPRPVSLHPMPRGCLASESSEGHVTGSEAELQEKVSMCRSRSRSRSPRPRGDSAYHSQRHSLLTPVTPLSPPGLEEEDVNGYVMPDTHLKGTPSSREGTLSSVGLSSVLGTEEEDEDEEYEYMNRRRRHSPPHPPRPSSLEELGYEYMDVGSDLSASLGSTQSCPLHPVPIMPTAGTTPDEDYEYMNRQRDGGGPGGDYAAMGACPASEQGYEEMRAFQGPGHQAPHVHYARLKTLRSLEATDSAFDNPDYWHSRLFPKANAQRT
Sequence of CDKL1 (Q00532 whole entry): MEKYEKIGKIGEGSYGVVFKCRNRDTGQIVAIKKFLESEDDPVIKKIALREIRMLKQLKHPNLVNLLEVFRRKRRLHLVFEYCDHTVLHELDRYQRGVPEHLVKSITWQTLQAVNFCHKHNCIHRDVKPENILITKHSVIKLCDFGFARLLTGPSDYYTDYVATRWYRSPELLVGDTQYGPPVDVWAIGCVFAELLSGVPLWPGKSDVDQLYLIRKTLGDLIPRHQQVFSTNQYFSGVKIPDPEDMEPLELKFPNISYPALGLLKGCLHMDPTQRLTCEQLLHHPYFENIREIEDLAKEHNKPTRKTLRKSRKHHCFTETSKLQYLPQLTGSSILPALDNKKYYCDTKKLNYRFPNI
Sequence of MET (P08581 whole entry): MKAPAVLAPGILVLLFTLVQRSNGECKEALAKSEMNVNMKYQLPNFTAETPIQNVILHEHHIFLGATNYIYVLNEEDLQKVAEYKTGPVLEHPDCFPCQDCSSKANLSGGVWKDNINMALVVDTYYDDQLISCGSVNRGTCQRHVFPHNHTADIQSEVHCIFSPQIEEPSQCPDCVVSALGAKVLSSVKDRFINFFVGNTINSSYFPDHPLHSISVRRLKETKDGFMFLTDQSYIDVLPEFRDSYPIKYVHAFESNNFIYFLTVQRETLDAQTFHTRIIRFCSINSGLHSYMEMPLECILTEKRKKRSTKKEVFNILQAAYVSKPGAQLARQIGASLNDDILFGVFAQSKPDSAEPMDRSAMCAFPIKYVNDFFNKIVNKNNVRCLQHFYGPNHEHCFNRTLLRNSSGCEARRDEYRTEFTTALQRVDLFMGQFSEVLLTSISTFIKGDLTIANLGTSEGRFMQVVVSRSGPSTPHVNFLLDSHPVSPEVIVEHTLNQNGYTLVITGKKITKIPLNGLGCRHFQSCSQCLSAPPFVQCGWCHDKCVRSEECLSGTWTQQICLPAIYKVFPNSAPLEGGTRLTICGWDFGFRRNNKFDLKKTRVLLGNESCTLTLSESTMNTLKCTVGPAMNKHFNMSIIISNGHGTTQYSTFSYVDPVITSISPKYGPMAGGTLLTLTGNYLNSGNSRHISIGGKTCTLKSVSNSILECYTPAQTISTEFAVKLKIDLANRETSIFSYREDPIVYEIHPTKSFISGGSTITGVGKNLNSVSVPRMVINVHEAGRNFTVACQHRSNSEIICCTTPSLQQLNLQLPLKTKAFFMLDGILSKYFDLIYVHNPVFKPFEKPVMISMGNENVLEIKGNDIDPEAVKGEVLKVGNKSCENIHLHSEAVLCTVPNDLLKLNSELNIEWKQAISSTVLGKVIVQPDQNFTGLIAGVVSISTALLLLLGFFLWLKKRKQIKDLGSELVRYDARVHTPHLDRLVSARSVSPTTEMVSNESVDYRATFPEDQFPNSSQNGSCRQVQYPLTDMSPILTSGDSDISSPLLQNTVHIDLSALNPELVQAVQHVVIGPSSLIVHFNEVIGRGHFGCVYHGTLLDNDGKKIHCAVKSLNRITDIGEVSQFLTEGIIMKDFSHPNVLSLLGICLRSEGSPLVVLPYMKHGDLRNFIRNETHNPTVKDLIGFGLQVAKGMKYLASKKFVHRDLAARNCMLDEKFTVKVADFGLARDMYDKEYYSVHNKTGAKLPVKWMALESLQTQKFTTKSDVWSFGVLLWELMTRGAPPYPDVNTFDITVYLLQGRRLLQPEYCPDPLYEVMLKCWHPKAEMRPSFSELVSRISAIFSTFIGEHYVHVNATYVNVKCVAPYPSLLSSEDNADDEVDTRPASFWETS
Sequence of IRAK4 (Q9NWZ3 whole entry): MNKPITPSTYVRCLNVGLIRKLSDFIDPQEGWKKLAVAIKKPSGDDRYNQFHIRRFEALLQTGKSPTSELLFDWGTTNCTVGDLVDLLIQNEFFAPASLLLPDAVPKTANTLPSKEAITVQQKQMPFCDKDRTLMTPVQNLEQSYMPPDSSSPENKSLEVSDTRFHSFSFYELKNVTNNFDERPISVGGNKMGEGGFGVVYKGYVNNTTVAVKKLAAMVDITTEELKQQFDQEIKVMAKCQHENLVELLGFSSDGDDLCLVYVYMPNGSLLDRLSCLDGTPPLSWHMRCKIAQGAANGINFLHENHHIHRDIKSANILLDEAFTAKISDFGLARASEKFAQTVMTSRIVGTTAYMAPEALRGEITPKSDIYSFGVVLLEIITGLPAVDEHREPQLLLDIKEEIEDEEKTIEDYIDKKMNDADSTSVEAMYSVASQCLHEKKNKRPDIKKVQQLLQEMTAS

In the case of `C=CC(=O)N1CCC([C@@H]2CCNc3c(C(N)=O)c(-c4ccc(Oc5ccccc5)cc4)nn32)CC1` [Zanubrutinib], the remaining binding at 0.3 µM in assay [1] (setting [24]) came to 83%; in [2] (setting [24]), 100%; in [3] (setting [24]) it was 54%; in assay [4] (setting [24]), 92%; in assay [5] (setting [24]), 63%; in [6] (setting [24]) it was 87%. Moreover, the remaining binding at 0.3 µM in assay [7] (setting [24]) stood at 92%; in [8] (setting [24]), 87%; in [9] (setting [24]) it was 100%; in assay [10] (setting [24]), 82%; in assay [11] (setting [24]), 98%; in [12] (setting [24]) it was 100%. Moreover, the remaining binding at 0.3 µM in [13] (setting [24]) came out at 82%; in assay [14] (setting [24]), 82%; in assay [15] (setting [24]), 96%; in assay [16] (setting [24]), 87%; in assay [17] (setting [24]), 92%; in assay [18] (setting [24]), 91%.

For `CC#CC(=O)N1CC[C@@H](n2c(=O)n(-c3ccc(Oc4ccccc4)cc3)c3c(N)ncnc32)C1` [Tirabrutinib], the remaining binding at 0.3 µM in assay [19] (setting [25]) came to 95%; in assay [20] (setting [25]), 76%; in assay [21] (setting [25]) it was 91%.

Turning to `C=CC(=O)N1CCC[C@@H](n2nc(-c3ccc(Oc4ccccc4)cc3)c3c(N)ncnc32)C1` [Ibrutinib], the remaining binding at 0.3 µM worked out at 71% in [22] (setting [26]); 96% in assay [3] (setting [26]); 89% in [5] (setting [26]); 96% in assay [23] (setting [26]); 85% in [12] (setting [26]); 1.2% in [16] (setting [26]).

`CC#CC(=O)N1CCC[C@H]1c1nc(-c2ccc(C(=O)Nc3ccccn3)cc2)c2c(N)nccn12` [Acalabrutinib]: the remaining binding at 0.3 µM in assay [1] (setting [27]) is 86%; in [19] (setting [27]), 99%; in assay [2] (setting [27]), 91%; in assay [22] (setting [27]) it was 90%; in assay [4] (setting [27]), 96%; in assay [20] (setting [27]), 88%. Further, the remaining binding at 0.3 µM was determined as 75% in [23] (setting [27]); 92% in assay [6] (setting [27]); 90% in assay [7] (setting [27]); 88% in assay [8] (setting [27]); 96% in [9] (setting [27]); 93% in [10] (setting [27]). The remaining binding at 0.3 µM turned out to be 97% in assay [11] (setting [27]); 82% in assay [13] (setting [27]); 97% in [14] (setting [27]); 90% in assay [15] (setting [27]); 89% in assay [17] (setting [27]); 66% in assay [21] (setting [27]). The remaining binding at 0.3 µM in assay [18] (setting [27]) came out at 97%.
